Like-named read-outs stand apart in the source and are kept apart here.
Key:
[1] = Cumulative urine excretion after single oral administration of A. paniculata extract; type: in vivo, human
Procedure: (§1) An aliquot of 50 µL of plasma or urine was placed in a 1.5 mL of polypropylene centrifuge micro-tube. Protein was removed from the sample by adding 200 µL of methanol (containing 50.00 ng/mL of IS). The mixture was vortexed for 10 min and was then centrifuged at 12,000 rpm, 4 °C for 10 min. The supernatant was filtered through a […] PVDF membrane (Chrom Tech) and transferred into a glass insert in a vial before LC‑MS/MS analysis.
(§2) The clinical pharmacokinetic study was designed as an open-labeled, with a single oral dosing, and conducted under a fasting condition. Four healthy subjects were recruited according to the following inclusion criteria: 18—55 years old with a body mass index (BMI) of 18–30 kg/m^2. Study participants were identified as healthy based on laboratory testing and physical examinations. The participants received 3 capsules containing A. paniculata extract (calculated as 60 mg of andrographolide/dose) before breakfast with 240 mL of drinking water. Blood samples, in EDTA tubes, were taken after oral administration at 0, 10, 20, 30, 45 min, and 1, 1.5, 2, 4, 6, 8, 10, 12, 24 h post dose. All blood samples were then centrifuged at 4000 ± 100 rpm, 4 °C for 5 min. Plasma was pipetted and stored in cryotubes at − 80 °C until further analysis. Urine samples were collected during 0–4, 4–8, 8–12, 12–24, 24–32, 32–40 and 40–48 h after dosing and were then kept at − 80 °C before sample extraction.
(§3) Finally, the hydrolysis of glucuronide metabolites in the pharmacokinetic study was performed according to the following process: 50 µL of plasma or urine sample was incubated for 30 min with 50 µL of 1000 U/mL β-glucuronidase in phosphate buffer pH 6.8 (composed of 0.1 M sodium phosphate monobasic and 0.1 M sodium phosphate dibasic) at 37 °C. For the hydrolysis of sulfatase, 50 µL of 100 units/mL of sulfatase in an acetate buffer at pH 5.0 (composed of 0.1 M acetic acid and 0.1 M sodium acetate) was added into 50 µL of sample; the mixture was then incubated at 37 °C for 2 h. The reaction was stopped in all hydrolysis samples with 150 µL of cold methanol, and then protein precipitation was performed prior to LC–MS/MS analysis. However, due to unavailable standard of the conjugated forms (AP-glucuronide and […]). The quantitative analysis of conjugated metabolites was determined after the hydrolysis reaction by enzymatic digestion, and the free form was analyzed without hydrolysis. The conjugated standards of AP-glucuronide or AP-sulfate should be synthesized for determining the exact amount of the glucuronide or sulfate.

[2] = plasma
Procedure: (§4) The stability of plasma and urine samples were evaluated at three different QC concentration levels (LQC, MQC and HQC, n = 3 for each level); the conditions were freeze–thaw stability, long-term stability, short-term stability, and post preparative stability in an autosampler. The evaluation of stability under freeze–thaw condition was carried out over five cycles of − 80 °C for at least 12 h of each cycle. Long-term stability was analyzed after storing the samples at − 80 °C. Short-term stability of each analyte, for up to 8 h during processing on the bench at room temperature, was also evaluated. For evaluation of post-preparative stability, the extracted samples were stored at ambient temperature (4 °C) in an autosampler for 24 h. The analyte was considered as a stable sample when the average percentage of accuracy of the QC sample was in the range of 85–115% and the %CV was not over 15%.

[3] = Stability in urine under different storage conditions; type: physicochemical, human
Procedure: as §4

[4] = Clinical pharmacokinetics in plasma after single oral administration of A. paniculata extract; type: in vivo, human; conditions: for Cmax / AUC(0-t) / Vd/F / Tmax / half-life: human, parent compound in plasma, single oral dose of extract (60 mg andrographolide); for Cmax: healthy subjects n = 4; for Cmax / AUC(0-t) / Vd/F: mean ± SD; for AUC(0-t) / Vd/F / Tmax / half-life: n = 4; for Tmax / half-life: median; for AUC of both conjugated metabolites compared to the respective parent compounds: plasma, single oral dose of extract
Procedure: as §1, §2
Pharmacokinetic parameters were determined by non-compartmental analysis using PK solutions software, version 2.0 (Summit Research Services). The maximum concentration of four targeted compounds (Cmax) and the time to reach maximum concentration (Tmax) were taken directly from the individual plasma concentration versus time profiles. The area under the curve from time zero to the last sampling time (AUC0-t) was estimated using the linear trapezoidal rule. The apparent volume of distribution (Vd/F) and the elimination half-life (t1/2) were determined using non-compartmental analysis.
as §3

[5] = Freeze–thaw stability 5 cycles, 2.50 ng/mL (LQC)
[6] = Freeze–thaw stability 5 cycles, 500.00 ng/mL (MQC)
[7] = Freeze–thaw stability 5 cycles, 900.00 ng/mL (HQC)
[8] = Long term stability 3 months at − 80 °C, 2.50 ng/mL (LQC)
[9] = Long term stability 3 months at − 80 °C, 500.00 ng/mL (MQC)
[10] = Long term stability 3 months at − 80 °C, 900.00 ng/mL (HQC)
[11] = Post preparative stability 24 h at autosampler, 2.50 ng/mL (LQC)
[12] = Post preparative stability 24 h at autosampler, 500.00 ng/mL (MQC)
[13] = Post preparative stability 24 h at autosampler, 900.00 ng/mL (HQC)
[14] = Short term stability 8 h at room temperature, 2.50 ng/mL (LQC)
[15] = Short term stability 8 h at room temperature, 500.00 ng/mL (MQC)
[16] = Short term stability 8 h at room temperature, 900.00 ng/mL (HQC)

C=C1CC[C@@H]2[C@](C)(CO)[C@H](O)CC[C@@]2(C)[C@@H]1C/C=C1/C(=O)OC[C@H]1O [AP1, andrographolide]
Route of excretion [1]: primarily excreted renally
%Accuracy [2, 5]: 97.99%
Measured concentration [2, 5]: 2.45 ± 0.06 ng/mL
%Accuracy [2, 6]: 93.01%
Measured concentration [2, 6]: 465.07 ± 25.39 ng/mL
%Accuracy [2, 7]: 95.28%
Measured concentration [2, 7]: 857.48 ± 19.46 ng/mL
%Accuracy [2, 8]: 94.28%
Measured concentration [2, 8]: 2.36 ± 0.06 ng/mL
%Accuracy [2, 9]: 91.77%
Measured concentration [2, 9]: 458.87 ± 8.67 ng/mL
%Accuracy [2, 10]: 99.25%
Measured concentration [2, 10]: 893.21 ± 22.77 ng/mL
%Accuracy [2, 11]: 93.81%
Measured concentration [2, 11]: 2.35 ± 0.18 ng/mL
%Accuracy [2, 12]: 92.60%
Measured concentration [2, 12]: 463.01 ± 10.97 ng/mL
%Accuracy [2, 13]: 99.52%
Measured concentration [2, 13]: 895.66 ± 31.23 ng/mL
%Accuracy [2, 14]: 93.65%
Measured concentration [2, 14]: 2.34 ± 0.15 ng/mL
%Accuracy [2, 15]: 89.06%
Measured concentration [2, 15]: 445.29 ± 9.56 ng/mL
%Accuracy [2, 16]: 98.76%
Measured concentration [2, 16]: 888.87 ± 23.16 ng/mL
%Accuracy [3, 5]: 94.39%
Measured concentration [3, 5]: 2.36 ± 0.20 ng/mL
%Accuracy [3, 6]: 94.01%
Measured concentration [3, 6]: 470.05 ± 32.15 ng/mL
%Accuracy [3, 7]: 98.78%
Measured concentration [3, 7]: 889.00 ± 36.63 ng/mL
%Accuracy [3, 8]: 95.31%
Measured concentration [3, 8]: 2.38 ± 0.16 ng/mL
%Accuracy [3, 9]: 91.78%
Measured concentration [3, 9]: 458.89 ± 20.53 ng/mL
%Accuracy [3, 10]: 98.08%
Measured concentration [3, 10]: 882.74 ± 14.22 ng/mL
%Accuracy [3, 11]: 94.23%
Measured concentration [3, 11]: 2.36 ± 0.18 ng/mL
%Accuracy [3, 12]: 95.00%
Measured concentration [3, 12]: 474.97 ± 23.30 ng/mL
%Accuracy [3, 13]: 99.66%
Measured concentration [3, 13]: 896.96 ± 17.62 ng/mL
%Accuracy [3, 14]: 93.15%
Measured concentration [3, 14]: 2.33 ± 0.06 ng/mL
%Accuracy [3, 15]: 95.80%
Measured concentration [3, 15]: 479.00 ± 32.64 ng/mL
%Accuracy [3, 16]: 101.88%
Measured concentration [3, 16]: 916.95 ± 32.00 ng/mL
Cmax [4]: 60.9 ± 26.5 ng/mL
AUC(0-t) [4]: 210 ± 21.1 ng·h/mL
Vd/F [4]: 4.58 ± 3.28 L/kg
Tmax [4]: 0.8 h
half-life [4]: 1.27 h
AUC of both conjugated metabolites compared to the respective parent compounds [4]: greater

C=C1CC[C@@H]2[C@](C)(CO)[C@H](O)CC[C@@]2(C)[C@@H]1/C=C/C1=CCOC1=O [AP3, 14-deoxy-11, 12-didehydroandrographolide]
Route of excretion [1]: primarily excreted renally
%Accuracy [2, 5]: 102.35%
Measured concentration [2, 5]: 2.56 ± 0.21 ng/mL
%Accuracy [2, 6]: 93.25%
Measured concentration [2, 6]: 466.24 ± 38.67 ng/mL
%Accuracy [2, 7]: 98.75%
Measured concentration [2, 7]: 888.74 ± 16.64 ng/mL
%Accuracy [2, 8]: 87.13%
Measured concentration [2, 8]: 2.18 ± 0.05 ng/mL
%Accuracy [2, 9]: 94.32%
Measured concentration [2, 9]: 471.59 ± 4.35 ng/mL
%Accuracy [2, 10]: 98.11%
Measured concentration [2, 10]: 883.01 ± 16.08 ng/mL
%Accuracy [2, 11]: 97.41%
Measured concentration [2, 11]: 2.44 ± 0.04 ng/mL
%Accuracy [2, 12]: 94.34%
Measured concentration [2, 12]: 471.70 ± 15.57 ng/mL
%Accuracy [2, 13]: 100.12%
Measured concentration [2, 13]: 901.09 ± 11.50 ng/mL
%Accuracy [2, 14]: 97.61%
Measured concentration [2, 14]: 2.44 ± 0.04 ng/mL
%Accuracy [2, 15]: 94.40%
Measured concentration [2, 15]: 472.00 ± 19.37 ng/mL
%Accuracy [2, 16]: 98.65%
Measured concentration [2, 16]: 887.83 ± 21.04 ng/mL
%Accuracy [3, 5]: 93.92%
Measured concentration [3, 5]: 2.35 ± 0.10 ng/mL
%Accuracy [3, 6]: 91.91%
Measured concentration [3, 6]: 459.54 ± 15.54 ng/mL
%Accuracy [3, 7]: 100.19%
Measured concentration [3, 7]: 901.72 ± 35.81 ng/mL
%Accuracy [3, 8]: 94.28%
Measured concentration [3, 8]: 2.36 ± 0.06 ng/mL
%Accuracy [3, 9]: 90.36%
Measured concentration [3, 9]: 451.82 ± 15.00 ng/mL
%Accuracy [3, 10]: 98.18%
Measured concentration [3, 10]: 883.61 ± 32.83 ng/mL
%Accuracy [3, 11]: 93.61%
Measured concentration [3, 11]: 2.34 ± 0.11 ng/mL
%Accuracy [3, 12]: 90.33%
Measured concentration [3, 12]: 451.66 ± 9.81 ng/mL
%Accuracy [3, 13]: 100.28%
Measured concentration [3, 13]: 902.47 ± 52.60 ng/mL
%Accuracy [3, 14]: 94.35%
Measured concentration [3, 14]: 2.36 ± 0.07 ng/mL
%Accuracy [3, 15]: 90.63%
Measured concentration [3, 15]: 453.16 ± 19.26 ng/mL
%Accuracy [3, 16]: 101.88%
Measured concentration [3, 16]: 916.89 ± 26.49 ng/mL
Cmax [4]: 83.8 ± 22.2 ng/mL
AUC(0-t) [4]: 309 ± 59 ng·h/mL
Vd/F [4]: 0.73 ± 0.1 L/kg
Tmax [4]: 1.5 h
half-life [4]: 1.38 h
AUC of both conjugated metabolites compared to the respective parent compounds [4]: greater

Source: PMC9924185, “A validated LC–MS/MS method for clinical pharmacokinetics and presumptive phase II metabolic pathways following oral administration of Andrographis paniculata extract” (Scientific Reports, 2023)
